Test results published in the supplement of paper PMC10307832.

Experiments:
Experiment in all cases: relative viability (nuclei count vs DMSO), 5 days (fraction); higher = more cells survive
[1] = compound: CC1CC(=O)N(C2=CN=C(N=C2N1C3CCCC3)NC4=C(C=C(C=C4)C(=O)NC5CCN(CC5)C)OC)C [NPK76-II-72-1] + CC(=O)Nc1cccc(-n2c(=O)n(C3CC3)c(=O)c3c(Nc4ccc(I)cc4F)n(C)c(=O)c(C)c32)c1 [Trametinib] (partner 0.02 µM)
Method in brief: (§1)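 For relative viability, nuclei counts in treated wells were divided by those in vehicle wells. Lung cancer cell lines had been pin-tool dosed in 1536-well plates the day after seeding and cultured for 5 days, then fixed and stained in one step (final 0.05% Triton X-100, 1% formaldehyde, 1 ug/ml Hoechst) and imaged at 4×. Doses were one drug alone or a fixed anchor-drug dose plus five library-drug doses (not always all listed) in √10 steps, and values are duplicate-plate medians.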

[2] = compound: CC1CC(=O)N(C2=CN=C(N=C2N1C3CCCC3)NC4=C(C=C(C=C4)C(=O)NC5CCN(CC5)C)OC)C [NPK76-II-72-1] + N=C(N)NC(=N)NCCc1ccccc1 [Phenformin] (partner 250 µM)
Method in brief: as §1

[3] = compound: CC1CC(=O)N(C2=CN=C(N=C2N1C3CCCC3)NC4=C(C=C(C=C4)C(=O)NC5CCN(CC5)C)OC)C [NPK76-II-72-1] + Nc1ncn([C@H]2C[C@H](O)[C@@H](CO)O2)c(=O)n1 [Decitabine] (partner 2 µM)
Method in brief: as §1

BI-2536 + Navitoclax = compound: CC[C@@H]1C(=O)N(C)c2cnc(Nc3ccc(C(=O)NC4CCN(C)CC4)cc3OC)nc2N1C1CCCC1 [BI-2536] + CC1(C)CCC(c2ccc(Cl)cc2)=C(CN2CCN(c3ccc(C(=O)NS(=O)(=O)c4ccc(N[C@H](CCN5CCOCC5)CSc5ccccc5)c(S(=O)(=O)C(F)(F)F)c4)cc3)CC2)C1 [Navitoclax] (partner 0.5 µM)
Method in brief: as §1

Cell Line | relative viability ([1]; first compound 0.01 µM) | relative viability ([1]; first compound 0.03162 µM) | relative viability ([1]; first compound 0.1 µM) | relative viability ([1]; first compound 0.3162 µM) | relative viability ([1]; first compound 1 µM) | relative viability ([2]; first compound 0.01 µM) | relative viability ([2]; first compound 0.03162 µM) | relative viability ([2]; first compound 0.1 µM) | relative viability ([2]; first compound 0.3162 µM) | relative viability ([2]; first compound 1 µM) | relative viability ([3]; first compound 0.01 µM) | relative viability ([3]; first compound 0.03162 µM) | relative viability ([3]; first compound 0.1 µM) | relative viability ([3]; first compound 0.3162 µM) | relative viability ([3]; first compound 1 µM) | relative viability (BI-2536 + Navitoclax; first compound 0.01 µM) | relative viability (BI-2536 + Navitoclax; first compound 0.03162 µM) | relative viability (BI-2536 + Navitoclax; first compound 0.1 µM) | relative viability (BI-2536 + Navitoclax; first compound 0.3162 µM) | relative viability (BI-2536 + Navitoclax; first compound 1 µM)
NCI-H2126 | 0.541 | 0.567 | 0.563 | 0.537 | 0.598 | 0.52 | 0.532 | 0.508 | 0.525 | 0.557 | 0.57 | 0.554 | 0.569 | 0.516 | 0.538 | 0.847 | 0.843 | 0.75 | 0.328 | 0.25
LXF-289 | 0.71 | 0.691 | 0.644 | 0.703 | 0.68 | 0.531 | 0.587 | 0.503 | 0.516 | 0.497 | 0.345 | 0.374 | 0.364 | 0.383 | 0.357 | 0.949 | 0.858 | 0.658 | 0.064 | 0.0512
NCI-H2009 | 0.292 | 0.245 | 0.286 | 0.335 | 0.265 | 0.491 | 0.513 | 0.446 | 0.462 | 0.477 | 0.422 | 0.42 | 0.38 | 0.364 | 0.365 | 1.14 | 1.05 | 0.7 | 0.121 | 0.0887
NCI-H2405 | 0.662 | 0.618 | 0.601 | 0.59 | 0.702 | 0.379 | 0.386 | 0.4 | 0.35 | 0.419 | 0.74 | 0.789 | 0.719 | 0.629 | 0.862 | 0.7 | 0.218 | 0.106 | 0.0606 | 0.116
NCI-H1755 | 0.756 | 0.752 | 0.75 | 0.752 | 0.799 | 0.605 | 0.634 | 0.575 | 0.647 | 0.654 | 0.738 | 0.712 | 0.75 | 0.735 | 0.694 | 1 | 0.909 | 0.903 | 0.152 | 0.127
HCC-78 | 0.711 | 0.704 | 0.575 | 0.828 | 0.742 | 0.695 | 0.684 | 0.684 | 0.692 | 0.665 | 0.711 | 0.696 | 0.549 | 0.699 | 0.653 | 0.772 | 0.708 | 0.635 | 0.344 | 0.144
LOU-NH91 | 0.76 | 0.751 | 0.777 | 0.739 | 0.829 | 0.621 | 0.709 | 0.706 | 0.563 | 0.884 | 0.794 | 0.849 | 0.793 | 0.735 | 0.875 | 0.673 | 0.53 | 0.648 | 0.316 | 0.261
NCI-H3122 | 0.186 | 0.216 | 0.242 | 0.261 | 0.236 | 0.374 | 0.378 | 0.389 | 0.378 | 0.38 | 0.361 | 0.431 | 0.471 | 0.424 | 0.438 | 1 | 0.991 | 0.525 | 0.233 | 0.241
HCC-827 | 0.557 | 0.491 | 0.556 | 0.633 | 0.565 | 0.407 | 0.448 | 0.407 | 0.409 | 0.404 | 0.282 | 0.367 | 0.333 | 0.288 | 0.35 | 1.06 | 1 | 0.99 | 0.23 | 0.186
SK-LU-1 | 0.454 | 0.508 | 0.526 | 0.437 | 0.473 | 0.517 | 0.585 | 0.662 | 0.528 | 0.537 | 0.626 | 0.63 | 0.64 | 0.582 | 0.615 | 0.738 | 0.894 | 0.52 | 0.118 | 0.139
NCI-H1975 | 0.348 | 0.329 | 0.303 | 0.323 | 0.401 | 0.398 | 0.424 | 0.395 | 0.43 | 0.437 | 0.351 | 0.375 | 0.398 | 0.364 | 0.391 | 1.12 | 1.08 | 0.932 | 0.182 | 0.17
NCI-H1651 | 0.83 | 0.82 | 0.839 | 0.794 | 0.816 | 0.377 | 0.314 | 0.314 | 0.307 | 0.318 | 0.611 | 0.645 | 0.606 | 0.589 | 0.604 | 1.14 | 1.13 | 0.683 | 0.0829 | 0.055
NCI-H441 | 0.396 | 0.507 | 0.429 | 0.497 | 0.54 | 0.945 | 0.917 | 0.876 | 0.672 | 0.886 | 0.226 | 0.222 | 0.233 | 0.222 | 0.252 | 0.705 | 0.449 | 0.152 | 0.152 | 0.178
LCLC-97TM1 | 0.203 | 0.208 | 0.181 | 0.215 | 0.209 | 0.401 | 0.464 | 0.388 | 0.398 | 0.416 | 0.226 | 0.233 | 0.195 | 0.259 | 0.211 | 0.567 | 0.564 | 0.246 | 0.121 | 0.142
NCI-H727 | 0.352 | 0.392 | 0.341 | 0.394 | 0.395 | 0.49 | 0.435 | 0.481 | 0.411 | 0.672 | 0.874 | 0.888 | 0.801 | 0.785 | 0.764 | 0.356 | 0.552 | 0.255 | 0.138 | 0.176
NCI-H1355 | 0.468 | 0.452 | 0.421 | 0.395 | 0.44 | 0.408 | 0.458 | 0.455 | 0.45 | 0.456 | 0.349 | 0.359 | 0.338 | 0.315 | 0.344 | 0.885 | 1.08 | 0.91 | 0.159 | 0.186
HOP-62 | 0.384 | 0.415 | 0.337 | 0.428 | 0.37 | 0.622 | 0.648 | 0.615 | 0.637 | 0.683 | 0.202 | 0.238 | 0.222 | 0.208 | 0.203 | 1 | 1.08 | 0.967 | 0.0716 | 0.0536
NCI-H2085 | 0.505 | 0.522 | 0.532 | 0.528 | 0.541 | 0.765 | 0.735 | 0.682 | 0.668 | 0.695 | 0.543 | 0.519 | 0.517 | 0.472 | 0.611 | 1.04 | 1.13 | 0.704 | 0.208 | 0.272
